We go through eleven compounds from patent publication US5254590A, “Acylaminophenol compounds” (Adir et Compagnie, priority 1991, dated 1993).

pIC50: −log10 of the molar value.

The first assay relates to hypercholesterolemic hamsters. The assay can be described thus: Effect in hypercholesterolemic hamsters (total plasma cholesterol). Format: in vivo, Syrian golden hamsters. The note with it: orally, 10 mg/kg/day, 15 days (2 weeks), 0.2% hypercholesterolemic diet. The method, then: Syrian golden hamsters were subjected to a 0.2% hypercholesterolemic diet for 3 weeks. They were then treated orally either by the vehicle for the compounds tested (control group), or by a reference product, or by an original product at the dose of 10 mg/kg/day for 2 weeks. At the end of the treatment, the total cholesterol was measured in the plasma.
In the case of `CCCCCCCC/C=C\CCCCCCC(C)C(=O)Nc1cc(C)c(O)c(C)c1C` (stereo not drawn) [Example 20, 2,3,6-Trimethyl-4-(2-methyl-9-octadecenamido)phenol cis isomer], the “hypocholesterolemiant activity, level of total plasma cholesterol” value was “normalizes the level of cholesterol in the hypercholesterolemic animals”.

The assay is the same for the next values; noted with them: same conditions, orally, 10 mg/kg/day.
On to `CCCCCCCC/C=C\CCCCCCC(C)C(=O)Nc1cc(C)c(O)c(C)c1C` (stereo not drawn) [Example 20, 2,3,6-Trimethyl-4-(2-methyl-9-octadecenamido)phenol cis isomer], for which the “hypocholesterolemiant activity compared with reference products (Ref. 1 and Ref. 2)” value is given as “considerably higher than that of the reference products tested”.

The target in another assay is T1, acyl CoA-cholesterol-acyl transferase (ACAT) (Mus musculus, UniProt Q61263).
T1 construct: in the presence of a macrophage J 774 homogenate; endogenous in cells; host or cells: J774 macrophage line
T1 sequence (Q61263 1-540): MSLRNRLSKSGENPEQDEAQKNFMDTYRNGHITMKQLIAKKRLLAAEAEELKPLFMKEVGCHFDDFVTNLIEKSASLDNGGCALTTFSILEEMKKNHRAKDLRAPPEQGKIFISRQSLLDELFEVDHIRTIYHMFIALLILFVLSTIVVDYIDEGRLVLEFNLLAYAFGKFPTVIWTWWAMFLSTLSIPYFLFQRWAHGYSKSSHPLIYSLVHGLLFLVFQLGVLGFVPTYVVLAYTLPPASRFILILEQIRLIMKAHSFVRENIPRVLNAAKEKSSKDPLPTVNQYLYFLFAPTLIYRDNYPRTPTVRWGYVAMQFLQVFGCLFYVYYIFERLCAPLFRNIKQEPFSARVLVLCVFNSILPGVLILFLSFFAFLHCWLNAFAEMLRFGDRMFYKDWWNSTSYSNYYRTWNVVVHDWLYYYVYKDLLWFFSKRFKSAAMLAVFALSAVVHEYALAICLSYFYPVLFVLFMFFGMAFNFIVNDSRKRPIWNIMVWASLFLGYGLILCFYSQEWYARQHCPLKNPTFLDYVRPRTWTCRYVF
The assay can be described thus: Determination of ACAT: inhibition of esterification of free intracellular cholesterol in macrophage line J 774. Format: cell-based. To be noted: J774; macrophage line J 774, 24 hours, 10^-5 M, relative to placebo; read-out: percentage inhibition of ACAT activity of the macrophages. The method, then: The test products or the placebo are incubated in the presence of the macrophages for 24 hours at the concentration of 10^-5 M. The efficacy of these compounds is evaluated by calculating the ACAT activity of the macrophages incubated in the presence of a product relative to that of macrophages incubated in the presence of the placebo and is therefore expressed as a percentage inhibition.
A word on the inhibition: it is the change of the read-out against control, counted positive when it falls. With `CCCCCCCCCC(C)C(=O)Nc1cc(C)c(O)c(C)c1C` (stereo not drawn) [Example 4, 2,3,6-Trimethyl-4-(2-methylundecanamido)phenol], the inhibition at 10 µM amounted to 91%.

As for `CCCCCCCCCC(C)(C)C(=O)Nc1cc(C)c(O)c(C)c1C` [Example 14, 2,3,6-Trimethyl-4-(2,2-dimethylundecanamido)phenol], the inhibition at 10 µM came out at 92%.

`CCCCCCCCCCC(C)(C)C(=O)Nc1cc(C)c(O)c(C)c1C` [Example 15, 2,3,6-Trimethyl-4-(2,2-dimethyldodecanamido)phenol]: the inhibition at 10 µM was 93%.

As to `CCCCCCCCCCCC(C)(C)C(=O)Nc1cc(C)c(O)c(C)c1C` [Example 16, 2,3,6-Trimethyl-4-(2,2-dimethyltridecanamido)phenol], the inhibition at 10 µM stood at 96%.

In the case of `CCCCCCCC/C=C\CCCCCCC(C)C(=O)Nc1cc(C)c(O)c(C)c1C` (stereo not drawn) [Example 20, 2,3,6-Trimethyl-4-(2-methyl-9-octadecenamido)phenol cis isomer], the inhibition at 10 µM worked out at 95%.

Turning to `CCCCC/C=C\C/C=C\CCCCCCCC(=O)Nc1cc(C)c(O)c(C)c1C` [Example 21, 2,3,6-Trimethyl-4-(9,12-octadecadienamido)phenol cis, cis isomer], the inhibition at 10 µM was 90%.

In the case of `CCCCCC=CCC=CCC=CCCCCC(=O)Nc1cc(C)c(O)c(C)c1C` [Example 23, 2,3,6-Trimethyl-4-(6,9,12-octadecatrienamido)phenol], the inhibition at 10 µM was 94%.

`CCCCCCCCCCC1(C(=O)Nc2cc(C)c(O)c(C)c2C)CCCC1` [Example 57, 2,3,6-Trimethyl-4-[(1-decyl-cyclopent-1-yl)carboxamido]phenol]: the inhibition at 10 µM came to 98%.

With `CCCCC/C=C\C/C=C\CCCCCCC(C)C(=O)Nc1cc(C)c(O)c(C)c1C` (stereo not drawn) [Example 58, 2,3,6-Trimethyl-4-(2-methyl-9,12-octadecadienamido)phenol, cis, cis isomer], the inhibition at 10 µM came to 97%.

As for `CCCCCCCC/C=C\CCCCCCCC(=O)Nc1c(OC)cc(OC)cc1OC` [Ref. 1, 2,4,6-trimethoxy-(9-(Z)octadecenamido)benzene], the inhibition at 10 µM was determined as 75%.

The next assay relates to human LDLs. The assay can be described thus: Modification of the LDLs by copper sulfate (MDA production, lipid peroxidation). Format: biochemical. To be noted: 24 hours, copper sulfate 5×10^-6 M; probucol as reference. The method, then:
The human LDLs are incubated for 24 hours in the presence of copper sulfate (5×10^-6 M) with or without the test compounds (concentrations between 10^-7 M and 10^-4 M). After incubation, the peroxidation of the LDLs is evaluated by electrophoresis on agar gel and by the formation of one of the products of lipid peroxidation: malondialdehyde (MDA) according to the technique described by […] et al. (J. Clin. Invest. 77, 641-644, 1986).
Turning to `CCCCCCCC/C=C\CCCCCCCC(=O)Nc1c(OC)cc(OC)cc1OC` [Ref. 1, 2,4,6-trimethoxy-(9-(Z)octadecenamido)benzene], the “antioxidant activity towards human LDLs (in words)” value is listed as “completely lack this activity”.

As for `CCCCCCCCCCC(C)(C)C(=O)Nc1c(OC)cc(OC)cc1OC` [Ref. 2, 2,4,6-trimethoxy-(2,2-dimethyldodecanamido)benzene], the “antioxidant activity towards human LDLs (in words)” value is reported as “completely lack this activity”.

A further assay has as its target T1, acyl CoA-cholesterol-acyl transferase (ACAT). The assay can be described thus: Determination of ACAT: inhibition of esterification of free intracellular cholesterol in macrophage line J 774.
Details: not given
Format: cell-based.
The term pIC50 denotes the negative decadic logarithm of the IC50, by convention in mol/L. A higher pIC50 goes with a small IC50. Compound `CCCCCCCC/C=C\CCCCCCCC(=O)Nc1c(OC)cc(OC)cc1OC` [Ref. 1, 2,4,6-trimethoxy-(9-(Z)octadecenamido)benzene] gave a pIC50 of 5.52.
